Experimental data reported in patent US10743540B2, “3-amino-1,2,4-triazine derivatives and their use for controlling undesired plant growth” (BAYER CROPSCIENCE AKTIENGESELLSCHAFT, priority 2016, dated 2020).

Experiments:
Type in all cases: in vivo
VERPE: Veronica persica [1] = assay: Pre-emergence herbicidal effect; settings: application rate 320 g/ha, scored visually after 3 weeks, 100% = plants have died, 0% = like control plants
Text: (§1) 1. Pre-Emergence Herbicidal Effect and Crop Plant Compatibility Seeds of monocotyledonous and dicotyledonous weed plants and crop plants are laid out in sandy loam soil in wood-fiber pots and covered with soil. The compounds of the invention, formulated in the form of wettable powders (WP) or as emulsion concentrates (EC), are then applied to the surface of the covering soil as aqueous suspension or emulsion at a water application rate equating to 600 to 800 L/ha with addition of 0.2% wetting agent. After the treatment, the pots are placed in a greenhouse and kept under good growth conditions for the trial plants. The damage to the test plants is scored visually after a test period of 3 weeks by comparison with untreated controls (herbicidal activity in percent (%): 100% activity=the plants have died, 0% activity=like control plants). [table]

[2] = tested on: ECHCG: Echinochloa crus-galli; assay: Pre-emergence herbicidal effect; settings: application rate 320 g/ha, scored visually after 3 weeks, 100% = plants have died, 0% = like control plants
Text: as §1

[3] = tested on: POLCO: Polygonum convolvulus; assay: Pre-emergence herbicidal effect; settings: application rate 320 g/ha, scored visually after 3 weeks, 100% = plants have died, 0% = like control plants
Text: as §1

[4] = tested on: MATIN: Matricaria inodora; assay: Pre-emergence herbicidal effect; settings: application rate 320 g/ha, scored visually after 3 weeks, 100% = plants have died, 0% = like control plants
Text: as §1

[5] = tested on: ALOMY: Alopecurus myosuroides; assay: Pre-emergence herbicidal effect; settings: application rate 320 g/ha, scored visually after 3 weeks, 100% = plants have died, 0% = like control plants
Text: as §1

STEME: Stellaria media [6] = assay: Pre-emergence herbicidal effect; settings: application rate 320 g/ha, scored visually after 3 weeks, 100% = plants have died, 0% = like control plants
Text: as §1

SETVI: Setaria viridis = assay: Pre-emergence herbicidal effect; settings: application rate 320 g/ha, scored visually after 3 weeks, 100% = plants have died, 0% = like control plants
Text: as §1

VERPE: Veronica persica [7] = assay: Post-emergence herbicidal effect; settings: application rate 320 g/ha, treated at one-leaf stage, assessed visually after about 3 weeks, 100% = plants have died
Procedure: (§2) [table] 2. Post-Emergence Herbicidal Effect and Crop Plant Compatibility Seeds of monocotyledonous and dicotyledonous weed and crop plants are laid out in sandy loam soil in wood-fiber pots, covered with soil and cultivated in a greenhouse under good growth conditions. 2 to 3 weeks after sowing, the test plants are treated at the one-leaf stage. The compounds of the invention, formulated in the form of wettable powders (WP) or as emulsion concentrates (EC), are then sprayed onto the green parts of the plants as aqueous suspension or emulsion at a water application rate equating to 600 to 800 L/ha with addition of 0.2% wetting agent. After the test plants have been left to stand in the greenhouse under optimal growth conditions for about 3 weeks, the action of the preparations is assessed visually in comparison to untreated controls (herbicidal action in percent (%): 100% activity=the plants have died, 0% activity=like control plants).

VIOTR: Viola tricolor = assay: Post-emergence herbicidal effect; settings: application rate 320 g/ha, treated at one-leaf stage, assessed visually after about 3 weeks, 100% = plants have died
Procedure: as §2

STEME: Stellaria media [8] = assay: Post-emergence herbicidal effect; settings: application rate 320 g/ha, treated at one-leaf stage, assessed visually after about 3 weeks, 100% = plants have died
Procedure: as §2

[9] = tested on: LOLMU: Lolium multiflorum; assay: Pre-emergence herbicidal effect; settings: application rate 320 g/ha, scored visually after 3 weeks, 100% = plants have died, 0% = like control plants
Text: as §1

[10] = tested on: AMARE: Amaranthus retroflexus; assay: Post-emergence herbicidal effect; settings: application rate 320 g/ha, treated at one-leaf stage, assessed visually after about 3 weeks, 100% = plants have died
Procedure: as §2

[11] = tested on: ABUTH: Abutilon theophrasti; assay: Pre-emergence herbicidal effect; settings: application rate 320 g/ha, scored visually after 3 weeks, 100% = plants have died, 0% = like control plants
Text: as §1

| Compound | Herbicidal activity with respect to [%] VERPE (VERPE: Veronica persica [1]) [%] | Herbicidal activity with respect to [%] ECHCG [2] [%] | Herbicidal activity with respect to [%] POLCO [3] [%] | Herbicidal activity with respect to [%] MATIN [4] [%] | Herbicidal activity with respect to [%] ALOMY [5] [%] | Herbicidal activity with respect to [%] STEME (STEME: Stellaria media [6]) [%] | Herbicidal activity with respect to [%] SETVI (SETVI: Setaria viridis) [%] | Herbicidal activity with respect to [%] VERPE (VERPE: Veronica persica [7]) [%] | Herbicidal activity with respect to [%] VIOTR (VIOTR: Viola tricolor) [%] | Herbicidal activity with respect to [%] STEME (STEME: Stellaria media [8]) [%] | Herbicidal activity with respect to [%] LOLMU [9] [%] | Herbicidal activity with respect to [%] AMARE [10] [%] | Herbicidal activity with respect to [%] ABUTH [11] [%] |
| --- | --- | --- | --- | --- | --- | --- | --- | --- | --- | --- | --- | --- | --- |
| Cc1ccc2c(c1)[C@H](Nc1nnc(C(=O)NC(C)C)c(N)n1)[C@@H](C)C2 [Example 1.39] | 100 | 90 | 80 | 100 | 80 | 100 | 100 | 100 | 90 | 80 |  |  |  |
| Nc1nc(NC2CCCc3cc(F)ccc32)nnc1C(F)(F)F (racemic) [Example 1.46] | 100 | 100 | 100 | 100 | 90 | 100 | 100 | 80 |  | 100 | 90 |  |  |
| CNC(=O)c1nnc(N[C@H]2c3cc(C)ccc3C[C@@H]2C)nc1N [Example 1.41] | 100 | 100 | 100 | 100 | 100 | 100 | 100 | 100 | 80 |  | 100 | 80 |  |
| Cc1ccc2c(c1)[C@H](Nc1nnc(C(F)(F)F)c(N)n1)CC2 [Example 1.31] | 100 | 100 | 100 | 100 | 100 | 100 | 100 |  |  | 90 | 100 |  |  |
| Cc1ccc2c(c1)[C@H](Nc1nnc(C(=O)N(C)C)c(N)n1)CC2 [Example 1.77] |  | 100 | 100 | 100 | 100 |  | 100 |  | 90 | 100 |  |  | 90 |
| N#Cc1nnc(N[C@@H]2CCCc3ccccc32)nc1N [Example 1.37] | 100 | 100 | 100 | 100 | 100 | 100 | 100 | 100 |  | 100 | 100 |  |  |
| Cc1ccc2c(c1)[C@H](Nc1nnc(C(C)O)c(N)n1)[C@@H](C)C2 (stereo partly shown) [Example 1.103] | 100 | 100 | 100 | 100 |  | 100 |  | 90 | 90 | 80 |  |  |  |
| N#Cc1nnc(NC2CCOc3ccccc32)nc1N (racemic) [Example 1.60] | 100 |  |  |  |  | 100 |  | 100 |  | 90 |  | 80 |  |
| Nc1nc(NC2c3ccccc3CC2O)nnc1C(F)(F)F (stereo not shown) [Example 1.82] |  |  | 100 | 100 |  |  | 100 |  |  |  |  |  |  |
| CCOC(=O)c1nnc(N[C@@H]2CCc3ccc(C)cc32)nc1N [Example 1.74] |  | 100 | 100 | 100 | 80 |  | 100 |  |  | 100 |  |  |  |
| CCOC(=O)c1nnc(N[C@@H]2CCCc3ccccc32)nc1N [Example 1.32, Ethyl 5-amino-3-[(1R)-1,2,3,4-tetrahydronaphthalen-1-ylamino]-1,2,4-triazine-6-carboxylate] | 100 | 100 |  | 100 |  | 100 | 90 | 80 |  | 80 |  | 80 |  |
| Nc1nc(N[C@@H]2CCCc3ccccc32)nnc1Cl [Example 1.4] | 100 | 100 | 100 | 100 | 100 | 100 | 100 | 90 | 80 | 90 | 100 | 90 |  |
| N#Cc1nnc(NC2CCOc3ccc(F)cc32)nc1N (racemic) [Example 1.64] | 100 | 100 | 100 | 90 |  | 100 | 100 | 100 | 80 | 90 |  | 100 |  |
| Nc1nc(N[C@@H]2CCc3ccccc32)nnc1Cl [Example 1.59] | 100 | 80 | 80 |  |  | 100 | 80 | 80 |  | 100 | 90 |  |  |
